Values quoted from earlier work, collected in patent EP1693447A1, “Procedure for the preparation of superoxide dismutase” (Gnosis S.p.A., priority 2005, dated 2006).

Tested on: superoxide dismutase
Settings: SOD currently on the market

For “Bovine liver - PEG superoxide dismutase - freeze-dried powder: type of SOD currently on the market, PEG superoxide dismutase”, the “superoxide dismutase units/mg of protein” value is listed as “Bovine liver - PEG superoxide dismutase - freeze-dried powder ≥ 1,350 units/mg of protein”.
